Results taken from patent US20120273764A1, “COMPOSITION FOR ORGANIC PHOTOELECTRIC DEVICE, ORGANIC PHOTOELECTRIC DEVICE USING THE SAME, AND DISPLAY DEVICE INCLUDING THE SAME” (CHEIL INDUSTRIES, INC., priority 2009, published 2012).

Assay: Solubility evaluation in organic solvent
Format: physicochemical
Settings: chlorobenzene
Experimental: An organic solvent was added to 30 mg of each compound, and mixed until the total weight of each solution became 1.0 g. The mixture was rolled at room temperature for 1 hour, and then filtered with a syringe filter (Acrodisc Company) whose average pore diameter was 0.2 μm. Herein, solubility and film-forming properties were compared based on CBP, which is a generally-used host compound.
(1) Solubility Evaluation Method: solubility was determined by removing the filtered solution of the solvent and measuring the mass of the remaining solid, and the result is shown in the following Table 1. […]

| Compound | Solubility in chlorobenzene (in words) |
| --- | --- |
| c1ccc2c(c1)c1ccccc1n2-c1ccc(-c2ccc(-n3c4ccccc4c4ccccc43)cc2)cc1 [CBP, 4,4-N,N-dicarbazolebiphenyl, reference compound] | part of the CBP was dissolved |

Same assay, conditions: chlorobenzene; 30 mg compound made up to 1.0 g solution, rolled at room temperature for 1 hour, 0.2 μm syringe filter

| Compound | Solubility Chlorobenzene |
| --- | --- |
| c1ccc2c(c1)c1ccccc1n2-c1ccc(-c2ccc(-n3c4ccccc4c4ccccc43)cc2)cc1 [CBP, 4,4-N,N-dicarbazolebiphenyl, reference compound] | 1 wt % |
| c1ccc(-n2c3ccccc3c3c4c5ccccc5n(-c5ccccc5)c4ccc32)cc1 [Chem. Form. 20] | equal to 3 wt % |
| c1ccc(-n2c3ccccc3c3ccc4c5ccccc5n(-c5ccccc5)c4c32)cc1 [Chem. Form. 38] | equal to 3 wt % |
| c1ccc(-c2nnc(-c3ccc(-c4ccc5c(c4)C4(c6ccccc6-c6ccccc64)c4ccccc4-5)cc3)o2)cc1 [Chem. Form. 43] | equal to 3 wt % |
| c1cncc(-c2nnc(-c3cc(-c4ccc5c(c4)C4(c6ccccc6-c6ccccc64)c4ccccc4-5)cc(-c4ccc5c(c4)C4(c6ccccc6-c6ccccc64)c4ccccc4-5)c3)o2)c1 [Chem. Form. 44] | equal to 3 wt % |

Same assay, conditions: toluene

| Compound | Solubility in toluene (in words) |
| --- | --- |
| c1ccc2c(c1)c1ccccc1n2-c1ccc(-c2ccc(-n3c4ccccc4c4ccccc43)cc2)cc1 [CBP, 4,4-N,N-dicarbazolebiphenyl, reference compound] | little CBP was dissolved |

Same assay, conditions: toluene; 30 mg compound made up to 1.0 g solution, rolled at room temperature for 1 hour, 0.2 μm syringe filter

| Compound | Solubility Toluene |
| --- | --- |
| c1ccc2c(c1)c1ccccc1n2-c1ccc(-c2ccc(-n3c4ccccc4c4ccccc43)cc2)cc1 [CBP, 4,4-N,N-dicarbazolebiphenyl, reference compound] | equal to 0.5 wt % |
| c1ccc(-n2c3ccccc3c3c4c5ccccc5n(-c5ccccc5)c4ccc32)cc1 [Chem. Form. 20] | equal to 3 wt % |
| c1ccc(-n2c3ccccc3c3ccc4c5ccccc5n(-c5ccccc5)c4c32)cc1 [Chem. Form. 38] | equal to 3 wt % |
| c1ccc(-c2nnc(-c3ccc(-c4ccc5c(c4)C4(c6ccccc6-c6ccccc64)c4ccccc4-5)cc3)o2)cc1 [Chem. Form. 43] | equal to 3 wt % |
| c1cncc(-c2nnc(-c3cc(-c4ccc5c(c4)C4(c6ccccc6-c6ccccc64)c4ccccc4-5)cc(-c4ccc5c(c4)C4(c6ccccc6-c6ccccc64)c4ccccc4-5)c3)o2)c1 [Chem. Form. 44] | equal to 3 wt % |
